Results reported in patent US20200268832A1, “COMPOSITIONS FOR DELIVERY TO AND TREATMENT OF ATHEROSCLEROTIC PLAQUES” (Sanford Burnham Prebys Medical Discovery Institute, priority 2015, published 2020).
“Also recorded” adds a separate entry of the source. Bridges are numbered along the chain shown (N, C = ends). Where no end group is shown, it is not given here. FAM = 5(6)-carboxyfluorescein; Ahx = NCCCCCC(=O)O

Tests used:
p32 protein [1] = molecular target: T1, p32 protein (Homo sapiens, UniProt Q07021); assay: Fluorescence polarization assay: displacement of FAM-TT1 from p32 (HTS, dose response, unlabeled peptide competition); format: binding; settings: for dose-dependent inhibition of FAM-TT1 binding to p32: 8.25 μM to 100 μM; for inhibition at 25 µM: high-throughput screen hits, inhibition of TT1-p32 interaction, library compounds 25 μM (Table 1), b410 says 100 μM; for inhibition at 100 µM: highest concentration used, read-out: inhibition of FAM-TT1 binding to p32 in FP assay
T1 construct: 6xHis; host or cells: Rosetta-gami-2 cells (Novagen); an E. coli strain by own knowledge
T1 sequence (Q07021 74-282): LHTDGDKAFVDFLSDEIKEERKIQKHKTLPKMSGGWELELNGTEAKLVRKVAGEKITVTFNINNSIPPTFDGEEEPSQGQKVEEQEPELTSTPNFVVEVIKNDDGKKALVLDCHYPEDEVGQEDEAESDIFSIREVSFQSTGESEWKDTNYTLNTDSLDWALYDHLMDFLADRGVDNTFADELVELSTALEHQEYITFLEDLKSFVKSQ
Protocol: Fluorescence polarization (FP)-based assay was used for solution-based screening of compound libraries for p32 binding compounds. […] In FP assay, peptide conjugated with a fluorescent label (fluorescein-AM, FAM) is excited with polarized light. […] 6×-His-Tagged p^32 was expressed in Rosetta-gami-2 cells (Novagen). The protein was purified by IMAC using HIS-select resin (Sigma) with an imidizole gradient from 20-300 mM and eluted fractions were analyzed on analytical SDS-PAGE. […] Fluorescence polarization is given as milli-polarization (mP) value, which is obtained from equation (1):
mP=1000*(S−P)/(S+P), (Eq. 1)
(§1) The assay was initially set up in 20 μl well volume in 384 well plate (Corning Life Sciences), and measurements were carried out using PheraStar FS plate reader (BMG LABTECH, Ortenberg, Germany) in quadruplicate. Peptide and protein stock solutions were diluted to desired concentration with assay buffer (50 mM BIS-TRIS pH 7.4, 0.05% Tween20, 1 mM DTT). FAM-labeled peptides were protected from light during the experiment to avoid photobleaching. Optimal concentration of fluorescein (FAM) labeled-peptides for the assay was determined by measuring the limit of detection (LOD), signal-to-background ratio (S/B), and stability of mP value over series of peptide concentrations. In the binding assay, the concentration of FAM-peptide was kept constant, and the FP was measured over the range of target protein concentrations. The peptide dissociation constant (KD) was obtained by fitting the binding curve into Michaelis-Menten kinetics in GraphPad Prism-software (GraphPad Software, Inc., CA, USA).
FAM-TT-1 and p32 solutions are prepared just before experiment, and stored on ice during the screen; the peptide is shielded from light. • 1. […] Dispense 1.5 μL of assay buffer (50 mM BIS-TRIS pH 7.4, 0.05% Tween 20, 1 mM DTT) into columns 1-4 • 3. […] Dispense 37.5 nL of compounds (2 mM) into columns 5-44 • 5. Spin plate • 6. Incubate 20 min • 7. Dispense 1.5 μL FAM-TT-1 peptide (20 nM) into all columns • 8. Shake plate and spin plate • 9. Incubate 25 min • 10. Read plate on PheraStar FS
Chemical library of ˜50,000 compounds from ChemBridge (San Diego, Calif.) was screened in High-Throughput Screening Facility at Conrad Prebys Center for Chemical Genomics (Sanford-Burnham Medical Research Institute, La Jolla, Calif.). […] Peptide and protein were diluted immediately prior to screening, kept on ice during screening, and FAM-peptide was protected from light throughout the experiment. […]

b1b2 domain of NRP-1 = molecular target: T2, b1b2 domain of NRP-1 (Homo sapiens, UniProt O14786); assay: Fluorescence polarization displacement of FAM-RPARPAR from NRP-1; format: binding; settings: for effect on RPARPAR peptide binding to NRP-1: specificity assay, up to 100 μM
T2 sequence (O14786 273-586 limits assumed): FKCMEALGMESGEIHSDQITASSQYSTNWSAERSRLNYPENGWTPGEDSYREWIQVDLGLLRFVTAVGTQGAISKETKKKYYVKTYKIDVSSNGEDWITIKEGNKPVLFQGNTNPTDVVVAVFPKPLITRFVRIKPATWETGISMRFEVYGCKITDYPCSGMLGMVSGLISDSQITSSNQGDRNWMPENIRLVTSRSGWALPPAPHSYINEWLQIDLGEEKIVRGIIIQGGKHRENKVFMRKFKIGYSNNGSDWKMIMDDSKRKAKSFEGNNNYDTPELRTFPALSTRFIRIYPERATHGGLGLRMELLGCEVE
Protocol: Results of the high-throughput screen were confirmed in dose response tests. 8.25 μM to 100 μM dilutions of the compounds that displaced FAM-peptide from p32 were used in competition with FAM-peptide as described in previous section. Specificity of the hit compounds was verified by examining their binding to a different protein, b1b2 domain of NRP-1 (Vander Kooi et al., Proc. Natl. Acad. Sci. U.S.A., 10.1073/pnas.0700043104). Experimental method for NRP-1 b1b2 was developed and validated similarly to p32, using FAM-RPARPAR peptide as a known peptide ligand for NRP-1. The displacement of FAM-RPARPAR from NRP-1 protein by the hit compounds was studied in 384-well format, as described above.

p32 protein [2] = molecular target: T1, p32 protein; assay: TT1 phage binding inhibition assay (ELISA-type); settings: 100 μM compound
Protocol: The binding of individual phage to p32 was verified using ELISA-type of phage binding assay. 96-well plates (Corning Life Sciences, Tewksbury, Mass., USA) were coated with 100 μL of 5 μg/mL p32 in PBS at 4° C. overnight, washed 3 times with 200 μL of PBST (PBS+0.05% Tween-20), blocked with 200 μL of 0.5% bovine serum albumin (BSA) in PBST for 1 h at 37° C., and washed 3 times with PBST. Phages (1.11*10^8 pfu in 100 μL PBST) were added to p32-coated/BSA-blocked wells, the plate was incubated at 4° C. overnight, and washed 3 times with PBST. Subsequently, the plates were incubated with 100 μL in-house prepared polyclonal rabbit anti-T7 antibody diluted 1:1000 in PBST for 1 h at 4° C., and washed 3 times with washing buffer. Horseradish peroxidase (HRP)-labeled anti-rabbit IgG (Sigma-Aldrich) was diluted 1:1000 in PBS, and 100 μL was added to the wells, followed by 1 h incubation at 4° C. and washing 3 times. Next, 100 μL of OPD silver and gold substrate (Sigma-Aldrich) was added to the wells and incubated at room temperature until visible color was observed (<30 min). The reaction was stopped by adding 50 μL of 1M H2SO4, and the plate was read at 492 nm (Varioskan Flash, Thermo Scientific, Waltham, Mass., USA).
The ability to inhibit TT1-phage binding to p32 protein was used as a secondary assay to verify the hit compounds. The competition assay was based on the phage binding assay described above with minor modifications. ELISA plates were coated with 2.5 μg/mL p32, incubated with phages (1.11*10^8 pfu in 100 μL PBST) and 100 μM hit compounds at 4° C. overnight, and followed by antibody incubation and chromogenic reaction. Negative controls included DMSO at concentration it was used to dissolve the hit compounds.

p32 protein [3] = molecular target: T1, p32 protein; assay: NMR 1D 1H-aliph spectra of p32 with compounds; format: binding; settings: 5 μM p32; compounds 100 and 500 μM; TT1 70 μM
Protocol: FIGS. 3A and 3B are graphs showing NMR based evaluation of binding of compounds 4014008 and 7933989 to P32 protein. The ID ^1H-aliph spectra of 5 μM P32 in the absence (bottom) and presence of compounds #4014008 (A) and #7933989 (B) at 100 μM (second from bottom) and 500 μM (second from top) were collected. As a control, the spectrum of p32 in the presence of the known peptide binder, TT1 at 70 μM, was also collected (top).
All the NMR experiments were carried out on a Bruker Avance 700 spectrometer equipped with a TCI cryoprobe at T=293 K. For structure determinations, the peptide concentration was 100 μM in the NMR buffer in presence of 150 μM of ZnCl2. One-dimensional (1D) 1H spectra were acquired with a spectral width of 8417.51 Hz, relaxation delay 1.0 s, 8 k data points for acquisition and 16 k for transformation.

[4] = in vivo
Text: Toxicity of peptide, compounds, and compositions can be assessed for toxicity. Useful factors for assessing toxicity include body weight, serum cholesterol and triglyceride, and weight of liver and spleen. Liver and kidney functions can be monitored by blood tests.

atherosclerotic plaques = assay: Plaque homing of FAM-labeled peptides in ApoE null mice on high-fat diet; settings: 100 μg FAM-labeled peptide IV, one hour
Text: One hour later, the mice can be perfused through the heart under anesthesia, and tissues were collected. Accumulation of FAM-labeled peptides can be visualized with UV excitation. Atherosclerotic aortas can be sectioned at the aortic root level, and examined by confocal microscopy. […] CD31 staining can be used to visualize the endothelium over the plaque.
One hour later, the mice were perfused through the heart under anesthesia, and tissues were collected. Accumulation of FAM-labeled peptides was visualized with UV excitation. Atherosclerotic aortas were sectioned at the aortic root level, and examined by confocal microscopy. […] CD31 staining was used to visualize the endothelium over the plaque.

[5] = molecular target: T3, b1b2 domain of neuropilin-1 (NRP-1) (Homo sapiens, UniProt O14786); assay: Fluorescence polarization binding of FAM-peptide to NRP-1
T3 sequence (O14786 273-586 limits assumed): T2 sequence (O14786 273-586 limits assumed)
Protocol: FIG. 8 is a graph showing specificity of TT1 binding. Specificity of TT1 was further evaluated by measuring the binding of FAM-TT1 to recombinant non-target protein, b1b2 domain of neuropilin-1 (NRP-1). The binding was studied by fluorescence polarization. […] Each data point presents average±S.D., n=4-6.
as §1, with “USA). […]” for “USA).”

inhibition at 25 µM (p32 protein [1])	inhibition at 100 µM (p32 protein [1])	effect on RPARPAR peptide binding to NRP-1 (b1b2 domain of NRP-1)	inhibition at 100 µM (p32 protein [2])	Molecule	further results
40.5%	80%	no effect	75%	CC1(C)CN=C(NCCNC2=NCC(C)(C)S2)S1 [Compound 7933989]	perturbations in 1D 1H-aliphatic spectra of p32 (p32 protein [3]): caused similar perturbations; also recorded: shift in the peak at around −0.3 ppm
20.7%	65 to 75%	no effect	20%	Cc1nc2nc3c(cn2n1)C(=O)CC(c1cccs1)C3 (stereo not drawn) [Compound 9132086, 2-methyl-6-(2-thienyl)-6,7-dihydro[1,2,4]triazolo [5,1-b]quinazolin-8(5H)-one]	–
29.4%	–	–	–	Nc1nccc(N2CCC(C3CCN(Cc4cccnc4)CC3)C2)n1 (stereo not drawn) [Compound 54778828, 4-{3-[1-(3-pyridinylmethyl)-4-piperidinyl]-1-pyrrolidinyl}-2-pyrimidinami]	dose-dependent inhibition of FAM-TT1 binding to p32 (p32 protein [1]): only marginally active
30.8%	65 to 75%	no effect	20%	Cc1ccc(-c2cnc(N)c(N3CCC(O)C3)n2)c(-n2cccn2)c1 (stereo not drawn) [Compound 88361068, 1-{3-amino-6-[4-methyl-2-(1H-pyrazol-1-yl)phenyl]pryazin-2-yl}pyrrolidin-3-]	–
22.5%	65 to 75%	–	20%	CN1CCc2onc(-c3ccc(F)c(F)c3)c2C1 [Compound 91984046]	–

More lines, now with the values behind:

Molecule	inhibition at 25 µM (p32 protein [1])	inhibition at 100 µM (p32 protein [1])	effect on RPARPAR peptide binding to NRP-1 (b1b2 domain of NRP-1)	inhibition at 100 µM (p32 protein [2])	further results
Cc1c(O)ccc2c(C(F)(F)F)cc(=O)oc12 [Compound 6367577, 7-hydroxy-8-methyl-4-(trifluoromethyl)-2H-chromen-2-one]	39.5%	–	–	–	dose-dependent inhibition of FAM-TT1 binding to p32 (p32 protein [1]): less effective than the other active compounds; FP level in the presence of compound (b1b2 domain of NRP-1; highest concentration): negative value
C[C@@H](O)[C@@H]1NC(=O)[C@H](CCCNC(=N)N)NC(=O)[C@H](CCCCN)NC(=O)[C@H](CC(N)=O)NC(=O)CNC(=O)[C@@H](N)CSSC[C@@H](C(=O)O)NC(=O)CNC(=O)[C@H](CCCNC(=N)N)NC1=O [LyP-1, CGNKRTRGC]	–	–	–	–	toxicity (body weight, serum cholesterol and triglyceride, weight of liver and spleen, liver and kidney functions) [4]: no differences between LyP-1 and control groups
FAM-LyP-1: FAM-labeled LyP-1 peptide (CGNKRTRGC; disulfide 1-9 (inferred); not fully specified (N-terminus))	–	–	–	–	homing to atherosclerotic plaques (atherosclerotic plaques): signal was seen inside plaques
FAM-TT1: FAM-labeled TT1 peptide, 5(6)-carboxyfluorescein with 6-aminohexanoic acid spacer ({FAM-Ahx}-CKRGARSTC; disulfide 1-9 (inferred))	–	–	–	–	binding to b1b2 domain of NRP-1 [5]: did not show binding; homing to atherosclerotic plaques (atherosclerotic plaques): signal was seen inside plaques
RPARPAR [reference compound]	–	–	–	–	inhibition (dislocation) of FAM-TT1 binding to p32 by unlabeled peptide (p32 protein [1]; unlabeled peptides titrated up to 100 μM): not and did not dislocate FAM-TT1; binding to b1b2 domain of NRP-1 [5]: showed strong affinity
